Experimental data from patent publication US20100267561A1, “HERBICIDAL PYRIDAZINONE DERIVATIVES” (priority 2007, published 2010).

Key:
Assay in all cases: Test B pre-/postemergence plant response
Type in all cases: in vivo
[1] = tested on: woolly cupgrass (Eriochloa villosa); details: for Cupgrass, Woolly plant response rating: 8 g ai/ha
Procedure, shortened: (§1)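 Preemergence and postemergence (plants 2-18 cm, 1- to 4-leaf stage) applications used test chemicals in a non-phytotoxic solvent with surfactant. Plants were held in a greenhouse 13 to 15 days, then rated visually against controls on a 0-100 scale (0 no effect, 100 complete control).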

[2] = tested on: soybean (Glycine max); details: for Soybean plant response rating: 8 g ai/ha
Procedure, shortened: as §1

[3] = tested on: morningglory (Ipomoea coccinea); details: for Morningglory plant response rating: 8 g ai/ha
Procedure, shortened: as §1

[4] = tested on: downy bromegrass (Bromus tectorum); details: for Bromegrass, Downy plant response rating: 8 g ai/ha
Procedure, shortened: as §1

[5] = tested on: kochia (Kochia scoparia); details: for Kochia plant response rating: 8 g ai/ha
Procedure, shortened: as §1

[6] = tested on: velvetleaf (Abutilon theophrasti); details: for Velvetleaf plant response rating: 8 g ai/ha
Procedure, shortened: as §1

[7] = tested on: Italian ryegrass (Lolium multiflorum); details: for Ryegrass, Italian plant response rating: 8 g ai/ha
Procedure, shortened: as §1

[8] = tested on: corn (Zea mays); details: for Corn plant response rating: 8 g ai/ha
Procedure, shortened: as §1

[9] = tested on: pigweed (Amaranthus retroflexus); details: for Pigweed plant response rating: 8 g ai/ha
Procedure, shortened: as §1

[10] = tested on: Russian thistle (Salsola iberica); details: Preemergence
Procedure, shortened: as §1

[11] = tested on: green foxtail (Setaria viridis); details: for Foxtail, Green plant response rating: 8 g ai/ha
Procedure, shortened: as §1

[12] = tested on: surinam grass (Brachiaria decumbens); details: for Surinam Grass plant response rating: 8 g ai/ha
Procedure, shortened: as §1

[13] = tested on: eastern black (E.B.) nightshade (Solanum ptycanthum); details: Preemergence
Procedure, shortened: as §1

[14] = tested on: bermudagrass (Cynodon dactylon); details: for Bermudagrass plant response rating: 8 g ai/ha
Procedure, shortened: as §1

[15] = Postemergence, 16 g ai/ha, scale 0 to 100
[16] = Postemergence, 31 g ai/ha, scale 0 to 100, 0 no effect, 100 complete control
[17] = Postemergence, 62 g ai/ha, scale 0 to 100
[18] = Preemergence, 16 g ai/ha, scale 0 to 100 (0 no effect, 100 complete control)
[19] = Preemergence, 31 g ai/ha, 0 to 100 scale, 0 no effect, 100 complete control
[20] = Preemergence, 62 g ai/ha, scale 0 to 100
[21] = 16 g ai/ha, scale 0 to 100 (0 no effect, 100 complete control)

## CCc1cc(-c2ccc(C(F)(F)F)cc2)nn1-c1c(OS(C)(=O)=O)cnn(C)c1=O [Compound 19]
[1]; postemergence, 0-100 scale
  Cupgrass, Woolly plant response rating: 90
[1]; [15]
  Plant response rating, Cupgrass, Woolly: 90
[1]; [16]
  Plant response rating, Cupgrass, Woolly: 100
[1]; [17]
  Plant response rating, Cupgrass, Woolly: 100
[1]; [18]
  Plant response rating, Cupgrass, Woolly: 85
[1]; [19]
  Plant response rating, Cupgrass, Woolly: 98
[1]; [20]
  Plant response rating, Cupgrass, Woolly: 100
[1]; Preemergence, scale 0 to 100
  Cupgrass, Woolly plant response rating: 50
[2]; postemergence, 0-100 scale
  Soybean plant response rating: 0
[2]; [15]
  Plant response rating, Soybean: 0
[2]; [16]
  Plant response rating, Soybean: 0
[2]; [17]
  Plant response rating, Soybean: 0
[2]; [20]
  Plant response rating, Soybean: 0
[2]; Preemergence, scale 0 to 100
  Soybean plant response rating: 0
[3]; postemergence, 0-100 scale
  Morningglory plant response rating: 0
[3]; [15]
  Plant response rating, Morningglory: 0
[3]; [16]
  Plant response rating, Morningglory: 0
[3]; [17]
  Plant response rating, Morningglory: 0
[3]; [18]
  Plant response rating, Morningglory: 0
[3]; [19]
  Plant response rating, Morningglory: 0
[3]; [20]
  Plant response rating, Morningglory: 0
[3]; Preemergence, scale 0 to 100
  Morningglory plant response rating: 0
[4]; postemergence, 0-100 scale
  Bromegrass, Downy plant response rating: 10
[4]; [15]
  Plant response rating, Bromegrass, Downy: 75
[4]; [16]
  Plant response rating, Bromegrass, Downy: 75
[4]; [17]
  Plant response rating, Bromegrass, Downy: 90
[4]; [18]
  Plant response rating, Bromegrass, Downy: 0
[4]; [19]
  Plant response rating, Bromegrass, Downy: 30
[4]; [20]
  Plant response rating, Bromegrass, Downy: 60
[4]; Preemergence, scale 0 to 100
  Bromegrass, Downy plant response rating: 0
[5]; postemergence, 0-100 scale
  Kochia plant response rating: 0
[5]; [15]
  Plant response rating, Kochia: 0
[5]; [16]
  Plant response rating, Kochia: 0
[5]; [17]
  Plant response rating, Kochia: 0
[5]; [18]
  Plant response rating, Kochia: 0
[5]; [20]
  Plant response rating, Kochia: 0
[5]; Preemergence, scale 0 to 100
  Kochia plant response rating: 0
[6]; postemergence, 0-100 scale
  Velvetleaf plant response rating: 0
[6]; [15]
  Plant response rating, Velvetleaf: 0
[6]; [16]
  Plant response rating, Velvetleaf: 0
[6]; [17]
  Plant response rating, Velvetleaf: 0
[6]; [18]
  Plant response rating, Velvetleaf: 0
[6]; [19]
  Plant response rating, Velvetleaf: 0
[6]; [20]
  Plant response rating, Velvetleaf: 0
[6]; Preemergence, scale 0 to 100
  Velvetleaf plant response rating: 0
[7]; postemergence, 0-100 scale
  Ryegrass, Italian plant response rating: 80
[7]; [15]
  Plant response rating, Ryegrass, Italian: 98
[7]; [16]
  Plant response rating, Ryegrass, Italian: 100
[7]; [17]
  Plant response rating, Ryegrass, Italian: 100
[7]; [18]
  Plant response rating, Ryegrass, Italian: 90
[7]; [19]
  Plant response rating, Ryegrass, Italian: 100
[7]; [20]
  Plant response rating, Ryegrass, Italian: 100
[7]; Preemergence, scale 0 to 100
  Ryegrass, Italian plant response rating: 50
[8]; postemergence, 0-100 scale
  Corn plant response rating: 0
[8]; [15]
  Plant response rating, Corn: 0
[8]; [16]
  Plant response rating, Corn: 0
[8]; [17]
  Plant response rating, Corn: 95
[8]; [18]
  Plant response rating, Corn: 85
[8]; [19]
  Plant response rating, Corn: 95
[8]; [20]
  Plant response rating, Corn: 98
[8]; Preemergence, scale 0 to 100
  Corn plant response rating: 70
[9]; postemergence, 0-100 scale
  Pigweed plant response rating: 0
[9]; [15]
  Plant response rating, Pigweed: 0
[9]; [16]
  Plant response rating, Pigweed: 0
[9]; [17]
  Plant response rating, Pigweed: 0
[9]; [18]
  Plant response rating, Pigweed: 0
[9]; [19]
  Plant response rating, Pigweed: 0
[9]; [20]
  Plant response rating, Pigweed: 0
[9]; Preemergence, scale 0 to 100
  Pigweed plant response rating: 0
[10]; [21]
  Plant response rating, Russian Thistle: 0
[10]; 31 g ai/ha, 0 to 100 scale, 0 no effect, 100 complete control
  Plant response rating, Russian Thistle: 0
[10]; 8 g ai/ha, scale 0 to 100
  Russian Thistle plant response rating: 0
[11]; postemergence, 0-100 scale
  Foxtail, Green plant response rating: 60
[11]; [15]
  Plant response rating, Foxtail, Green: 100
[11]; [16]
  Plant response rating, Foxtail, Green: 100
[11]; [17]
  Plant response rating, Foxtail, Green: 100
[11]; [18]
  Plant response rating, Foxtail, Green: 100
[11]; [19]
  Plant response rating, Foxtail, Green: 100
[11]; [20]
  Plant response rating, Foxtail, Green: 100
[11]; Preemergence, scale 0 to 100
  Foxtail, Green plant response rating: 85
[12]; postemergence, 0-100 scale
  Surinam Grass plant response rating: 90
[12]; [15]
  Plant response rating, Surinam Grass: 100
[12]; [16]
  Plant response rating, Surinam Grass: 100
[12]; [17]
  Plant response rating, Surinam Grass: 100
[12]; [18]
  Plant response rating, Surinam Grass: 80
[12]; [19]
  Plant response rating, Surinam Grass: 98
[12]; [20]
  Plant response rating, Surinam Grass: 100
[12]; Preemergence, scale 0 to 100
  Surinam Grass plant response rating: 80
[13]; [21]
  Plant response rating, Nightshade, E. B.: 0
[13]; 62 g ai/ha, scale 0 to 100
  Plant response rating, Nightshade, E. B.: 0
[13]; 8 g ai/ha, scale 0 to 100
  Nightshade, E. B. plant response rating: 0
[14]; postemergence, 0-100 scale
  Bermudagrass plant response rating: 80
[14]; [15]
  Plant response rating, Bermudagrass: 100
[14]; [16]
  Plant response rating, Bermudagrass: 100
[14]; [17]
  Plant response rating, Bermudagrass: 100
[14]; Preemergence, scale 0 to 100 (0 no effect, 100 complete control)
  Bermudagrass plant response rating: 0
[14]; [18]
  Plant response rating, Bermudagrass: 90
[14]; [19]
  Plant response rating, Bermudagrass: 98
[14]; [20]
  Plant response rating, Bermudagrass: 100
